Measured values published in EPA's CvTdb concentration-time database.

What was measured:
Rat [1] = experiment: concentration in plasma after dosing; conditions: 5 min; dosed: Gemfibrozil; 100 mg/kg; oral; Male; Sprague-Dawley
Rat [2] = experiment: concentration in plasma after dosing; conditions: 1 h; dosed: Gemfibrozil; 50 mg/kg; oral; Male; Sprague-Dawley
Rat [3] = experiment: concentration in plasma after dosing; conditions: 5 min; dosed: Gemfibrozil; 4.29 mg/kg; oral; Male; Sprague-Dawley
Rat [4] = experiment: concentration in plasma after dosing; conditions: 4 h; dosed: Gemfibrozil; 50 mg/kg; oral; Male; Sprague-Dawley
Rat [5] = experiment: concentration in plasma after dosing; conditions: 10 min; dosed: Gemfibrozil; 50 mg/kg; oral; Male; Sprague-Dawley
Rat [6] = experiment: concentration in plasma after dosing; conditions: 0.25 h; dosed: Gemfibrozil; 100 mg/kg; oral; Male; Sprague-Dawley
Rat [7] = experiment: concentration in plasma after dosing; conditions: 6 h; dosed: Gemfibrozil; 50 mg/kg; oral; Male; Sprague-Dawley
Rat [8] = experiment: concentration in liver after dosing; conditions: 6 h; dosed: Fluorotelomer alcohol 8+2; 80 mg/kg; oral; Female; Harlan Sprague Dawley
Rat [9] = experiment: concentration in plasma after dosing; conditions: dosed: Fluorotelomer alcohol 8+2, 12 mg/kg, oral, Male, Harlan Sprague Dawley
Rat [10] = experiment: concentration in plasma after dosing; conditions: 192 h; dosed: 678-39-7; 12 mg/kg; iv; Male; F344
Rat [11] = experiment: concentration in plasma after dosing; conditions: dosed: 678-39-7, 12 mg/kg, iv, Male, F344
Rat [12] = experiment: concentration in kidney after dosing; conditions: 1 h; dosed: Fluorotelomer alcohol 8+2; 24 mg/kg; oral; Male; Harlan Sprague Dawley
Rat [13] = experiment: concentration in plasma after dosing; conditions: 192 h; dosed: 678-39-7; 12 mg/kg; iv; Male; F344; remark: listed apart in the source
Rat [14] = experiment: concentration in kidney after dosing; conditions: 12 h; dosed: Fluorotelomer alcohol 8+2; 24 mg/kg; oral; Male; Harlan Sprague Dawley
Rat [15] = experiment: concentration in plasma after dosing; conditions: 5 min; dosed: 678-39-7; 12 mg/kg; iv; Male; F344
Rat [16] = experiment: concentration in kidney after dosing; conditions: 0.5 h; dosed: Fluorotelomer alcohol 8+2; 80 mg/kg; oral; Female; Harlan Sprague Dawley
Rat [17] = experiment: concentration in liver after dosing; conditions: 1848 h; dosed: Perfluorooctane Sulfonate; 2 mg/kg; oral; Female; Harlan Sprague Dawley
Rat [18] = experiment: concentration in brain after dosing; conditions: 1848 h; dosed: Perfluorooctane Sulfonate; 20 mg/kg; oral; Male; Harlan Sprague Dawley
Rat [19] = experiment: concentration in liver after dosing; conditions: 1848 h; dosed: Perfluorooctane Sulfonate; 20 mg/kg; oral; Female; F344
Rat [20] = experiment: concentration in brain after dosing; conditions: 24 h; dosed: Perfluorooctane Sulfonate; 20 mg/kg; oral; Male; Harlan Sprague Dawley
Rat [21] = experiment: concentration in kidney after dosing; conditions: 1848 h; dosed: Perfluorooctane Sulfonate; 20 mg/kg; oral; Male; Harlan Sprague Dawley
Rat [22] = experiment: concentration in plasma after dosing; conditions: 3360 h; dosed: Perfluorooctane Sulfonate; 2 mg/kg; oral; Female; Harlan Sprague Dawley
Rat [23] = experiment: concentration in kidney after dosing; conditions: 24 h; dosed: Perfluorooctane Sulfonate; 20 mg/kg; oral; Female; F344
Rat [24] = experiment: concentration in kidney after dosing; conditions: 864 h; dosed: Perfluorooctane Sulfonate; 2 mg/kg; oral; Female; Harlan Sprague Dawley
Rat [25] = experiment: concentration in kidney after dosing; conditions: 24 h; dosed: Perfluorooctane Sulfonate; 2 mg/kg; oral; Female; Harlan Sprague Dawley
Rat [26] = experiment: concentration in kidney after dosing; conditions: 24 h; dosed: Perfluorooctane Sulfonate; 2 mg/kg; oral; Female; Harlan Sprague Dawley; remark: listed apart in the source
Rat [27] = experiment: concentration in plasma after dosing; conditions: 1848 h; dosed: Perfluorooctane Sulfonate; 2 mg/kg; oral; Female; Harlan Sprague Dawley
Rat [28] = experiment: concentration in plasma after dosing; conditions: 1.5 h; dosed: 2-Methyltetrahydrofuran; 40 mg/kg; iv; Male; Harlan Sprague Dawley
Rat [29] = experiment: concentration in plasma after dosing; conditions: 0.5 h; dosed: 2-Methyltetrahydrofuran; 40 mg/kg; iv; Female; Harlan Sprague Dawley
Rat [30] = experiment: concentration in brain after dosing; conditions: 1 h; dosed: Perfluorohexanoic Acid; 80 mg/kg; oral; Male; Harlan Sprague Dawley
Rat [31] = experiment: concentration in brain after dosing; conditions: 0.5 h; dosed: Perfluorohexanoic Acid; 80 mg/kg; oral; Male; Harlan Sprague Dawley
Rat [32] = experiment: concentration in liver after dosing; conditions: 12 h; dosed: Perfluorohexanoic Acid; 80 mg/kg; oral; Male; Harlan Sprague Dawley
Rat [33] = experiment: concentration in kidney after dosing; conditions: 0.5 h; dosed: Perfluorohexanoic Acid; 80 mg/kg; oral; Male; Harlan Sprague Dawley
Rat [34] = experiment: concentration in plasma after dosing; conditions: 5 min; dosed: Perfluorohexanoic Acid; 40 mg/kg; iv; Male; F344
Rat [35] = experiment: concentration in plasma after dosing; conditions: 1.5 h; dosed: Perfluorohexanoic Acid; 40 mg/kg; iv; Male; F344
Rat [36] = experiment: concentration in plasma after dosing; conditions: 1 h; dosed: Perfluorohexanoic Acid; 40 mg/kg; iv; Male; F344
Rat [37] = experiment: concentration in plasma after dosing; conditions: 0.25 h; dosed: Perfluorohexanoic Acid; 40 mg/kg; iv; Male; F344
Rat [38] = experiment: concentration in plasma after dosing; conditions: 1 h; dosed: Perfluorohexanoic Acid; 40 mg/kg; iv; Female; Harlan Sprague-Dawley
Rat [39] = experiment: concentration in plasma after dosing; conditions: dosed: Perfluorohexanoic Acid, 80 mg/kg, oral, Male, Harlan Sprague Dawley
Rat [40] = experiment: concentration in plasma after dosing; conditions: dosed: Perfluorohexanoic Acid, 40 mg/kg, oral, Male, Harlan Sprague Dawley

Cc1ccc(C)c(OCCCC(C)(C)C(=O)O)c1 [Gemfibrozil]
Conditions	concentration in plasma [ng/mL]
Rat [1]	1690
Rat [2]	7680
Rat [3]	893
Rat [4]	2860
Rat [5]	110000
Rat [6]	35700
Rat [7]	7260

O=C(O)CCC(F)(F)C(F)(F)C(F)(F)C(F)(F)C(F)(F)C(F)(F)C(F)(F)F [Fluorotelomer acid 7+3]
Conditions	concentration in kidney [ng/g]	concentration in liver [ng/g]	concentration in plasma [ng/mL]
Rat [8]	–	9210	–
Rat [10]	–	–	13.6
Rat [12]	568	–	–
Rat [13]	–	–	8.6
Rat [14]	573	–	–
Rat [15]	–	–	13.1
Rat [16]	435	–	–

concentration in plasma [ng/mL]
Conditions	3 h	5 min	48 h	192 h
Rat [9]	–	–	245	25.5
Rat [11]	807	11.6	–	–

O=S(=O)([O-])C(F)(F)C(F)(F)C(F)(F)C(F)(F)C(F)(F)C(F)(F)C(F)(F)C(F)(F)F [Perfluorooctane Sulfonate]
Conditions	concentration in brain [ng/g]	concentration in kidney [ng/g]	concentration in liver [ng/g]	concentration in plasma [ng/mL]
Rat [17]	–	–	9070	–
Rat [18]	1320	–	–	–
Rat [19]	–	–	55400	–
Rat [20]	11600	–	–	–
Rat [21]	–	4810	–	–
Rat [22]	–	–	–	144
Rat [23]	–	132000	–	–
Rat [24]	–	3490	–	–
Rat [25]	–	4940	–	–
Rat [26]	–	5720	–	–
Rat [27]	–	–	–	966

CC1CCCO1 (centres undefined) [2-Methyltetrahydrofuran]
Conditions	concentration in plasma [ng/mL]
Rat [28]	14500
Rat [29]	27200

O=C(O)C(F)(F)C(F)(F)C(F)(F)C(F)(F)C(F)(F)F [Perfluorohexanoic Acid]
Conditions	concentration in brain [ng/g]	concentration in kidney [ng/g]	concentration in liver [ng/g]	concentration in plasma [ng/mL]
Rat [30]	2830	–	–	–
Rat [31]	2500	–	–	–
Rat [32]	–	–	1910	–
Rat [33]	–	99400	–	–
Rat [34]	–	–	–	540
Rat [35]	–	–	–	8050
Rat [36]	–	–	–	3100
Rat [37]	–	–	–	7150
Rat [38]	–	–	–	1240

concentration in plasma [ng/mL]
Conditions	0.5 h	5 min	9 h
Rat [39]	–	29100	4040
Rat [40]	65500	–	4960
